The kinase profiling compilation of Christmann-Franck et al. (2016)

Experiments:
Assay in all cases: radiometric filter-binding kinase assay, Kinase HotSpot
Details in all cases: compound 0.5 µM; ATP 10 µM
ABL2 (human) = ABL2 (human) (UniProt P42684)
ACVR1B (human) = ACVR1B (human) (UniProt P36896)
BLK (human) = BLK (human) (UniProt P51451)
CAMK2B (human) = CAMK2B (human) (UniProt Q13554)
CAMKK1 (human) = CAMKK1 (human) (UniProt Q8N5S9)
CAMKK2 (human) = CAMKK2 (human) (UniProt Q96RR4)
CDK1 CCNA2 (human) = CDK1 CCNA2 (human) (UniProt P06493+P20248)
CDK4 CCND1 (human) = CDK4 CCND1 (human) (UniProt P24385+P11802)
CDK5 CDK5R1 p35 (human) = CDK5 CDK5R1 p35 (human) (UniProt Q00535+Q15078)
CSF1R (human) = CSF1R (human) (UniProt P07333)
DYRK1B (human) = DYRK1B (human) (UniProt Q9Y463)
Chain of DYRK1B (human) (Q9Y463 whole entry, looked up): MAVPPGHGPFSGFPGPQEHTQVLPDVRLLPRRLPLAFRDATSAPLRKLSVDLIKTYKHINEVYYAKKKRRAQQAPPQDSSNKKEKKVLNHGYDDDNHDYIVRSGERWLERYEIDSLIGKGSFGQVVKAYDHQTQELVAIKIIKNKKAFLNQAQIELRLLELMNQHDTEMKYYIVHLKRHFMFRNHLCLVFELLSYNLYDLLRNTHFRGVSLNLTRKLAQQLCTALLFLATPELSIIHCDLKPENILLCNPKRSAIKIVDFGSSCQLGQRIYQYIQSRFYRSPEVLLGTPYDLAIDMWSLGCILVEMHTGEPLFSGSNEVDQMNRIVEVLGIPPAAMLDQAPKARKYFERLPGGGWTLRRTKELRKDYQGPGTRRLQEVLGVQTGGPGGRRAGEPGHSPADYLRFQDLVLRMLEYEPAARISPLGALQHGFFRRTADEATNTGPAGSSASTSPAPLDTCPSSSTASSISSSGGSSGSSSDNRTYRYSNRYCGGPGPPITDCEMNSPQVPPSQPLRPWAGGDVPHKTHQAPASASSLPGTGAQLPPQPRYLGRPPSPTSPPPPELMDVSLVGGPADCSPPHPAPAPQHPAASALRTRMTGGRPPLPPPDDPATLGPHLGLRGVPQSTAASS

DYRK3 (human) = DYRK3 (human) (UniProt O43781)
EPHA2 (human) = EPHA2 (human) (UniProt P29317)
EPHA5 (human) = EPHA5 (human) (UniProt P54756)
FGFR2 (human) = FGFR2 (human) (UniProt P21802)
[1] = system: FLT4 (human), P35916 [Q890H]
GRK4 (human) = GRK4 (human) (UniProt P32298)
HIPK4 (human) = HIPK4 (human) (UniProt Q8NE63)
[2] = molecular target: JAK1 JH1 catalytic (human) (UniProt P23458)
KDR (human) = KDR (human) (UniProt P35968)
MAP3K14 (human) = MAP3K14 (human) (UniProt Q99558)
Chain of MAP3K14 (human) (Q99558 whole entry, looked up): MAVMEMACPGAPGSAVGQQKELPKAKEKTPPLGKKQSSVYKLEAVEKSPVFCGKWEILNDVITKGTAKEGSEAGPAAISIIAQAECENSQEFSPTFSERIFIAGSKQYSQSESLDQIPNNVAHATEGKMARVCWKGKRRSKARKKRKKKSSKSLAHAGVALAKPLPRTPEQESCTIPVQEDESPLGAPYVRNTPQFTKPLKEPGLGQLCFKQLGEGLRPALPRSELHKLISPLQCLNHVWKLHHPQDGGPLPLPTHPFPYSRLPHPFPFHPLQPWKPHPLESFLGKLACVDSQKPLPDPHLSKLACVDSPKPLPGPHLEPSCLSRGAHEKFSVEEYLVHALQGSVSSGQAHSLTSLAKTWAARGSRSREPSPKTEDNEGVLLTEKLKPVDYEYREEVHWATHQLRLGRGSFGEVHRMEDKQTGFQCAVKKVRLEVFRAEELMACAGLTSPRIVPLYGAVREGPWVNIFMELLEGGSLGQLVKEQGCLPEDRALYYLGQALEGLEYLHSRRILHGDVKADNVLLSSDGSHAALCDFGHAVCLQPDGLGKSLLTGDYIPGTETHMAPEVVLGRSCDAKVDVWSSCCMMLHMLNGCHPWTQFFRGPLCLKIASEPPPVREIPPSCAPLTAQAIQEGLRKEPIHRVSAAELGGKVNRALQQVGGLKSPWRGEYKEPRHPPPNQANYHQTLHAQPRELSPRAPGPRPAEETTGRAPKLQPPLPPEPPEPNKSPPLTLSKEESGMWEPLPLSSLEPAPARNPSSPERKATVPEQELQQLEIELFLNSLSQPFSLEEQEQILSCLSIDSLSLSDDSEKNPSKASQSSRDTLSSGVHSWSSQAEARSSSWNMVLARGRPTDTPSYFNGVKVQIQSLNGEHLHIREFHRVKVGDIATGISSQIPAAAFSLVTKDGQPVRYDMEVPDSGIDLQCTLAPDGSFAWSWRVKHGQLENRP

MAP4K5 (human) = MAP4K5 (human) (UniProt Q9Y4K4)
MELK (human) = MELK (human) (UniProt Q14680)
Chain of MELK (human) (Q14680 whole entry, looked up): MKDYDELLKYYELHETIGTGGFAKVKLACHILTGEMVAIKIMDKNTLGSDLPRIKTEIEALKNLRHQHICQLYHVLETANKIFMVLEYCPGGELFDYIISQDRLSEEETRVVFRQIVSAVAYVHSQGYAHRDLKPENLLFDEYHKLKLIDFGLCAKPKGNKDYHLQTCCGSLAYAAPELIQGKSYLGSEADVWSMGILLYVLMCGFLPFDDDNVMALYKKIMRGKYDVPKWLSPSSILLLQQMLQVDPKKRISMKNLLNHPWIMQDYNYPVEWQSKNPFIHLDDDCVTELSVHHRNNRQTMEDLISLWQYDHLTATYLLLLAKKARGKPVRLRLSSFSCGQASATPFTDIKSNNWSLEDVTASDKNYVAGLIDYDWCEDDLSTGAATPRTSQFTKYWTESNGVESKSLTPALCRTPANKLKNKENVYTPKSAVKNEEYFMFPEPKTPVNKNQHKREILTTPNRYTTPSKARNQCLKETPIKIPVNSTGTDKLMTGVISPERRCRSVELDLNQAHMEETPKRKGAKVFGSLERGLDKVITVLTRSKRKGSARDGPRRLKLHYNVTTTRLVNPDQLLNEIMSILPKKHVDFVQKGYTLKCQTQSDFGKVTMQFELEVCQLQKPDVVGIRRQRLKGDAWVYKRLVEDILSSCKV

MET (human) = MET (human) (UniProt P08581)
NUAK2 (human) = NUAK2 (human) (UniProt Q9H093)
Chain of NUAK2 (human) (Q9H093 whole entry, looked up): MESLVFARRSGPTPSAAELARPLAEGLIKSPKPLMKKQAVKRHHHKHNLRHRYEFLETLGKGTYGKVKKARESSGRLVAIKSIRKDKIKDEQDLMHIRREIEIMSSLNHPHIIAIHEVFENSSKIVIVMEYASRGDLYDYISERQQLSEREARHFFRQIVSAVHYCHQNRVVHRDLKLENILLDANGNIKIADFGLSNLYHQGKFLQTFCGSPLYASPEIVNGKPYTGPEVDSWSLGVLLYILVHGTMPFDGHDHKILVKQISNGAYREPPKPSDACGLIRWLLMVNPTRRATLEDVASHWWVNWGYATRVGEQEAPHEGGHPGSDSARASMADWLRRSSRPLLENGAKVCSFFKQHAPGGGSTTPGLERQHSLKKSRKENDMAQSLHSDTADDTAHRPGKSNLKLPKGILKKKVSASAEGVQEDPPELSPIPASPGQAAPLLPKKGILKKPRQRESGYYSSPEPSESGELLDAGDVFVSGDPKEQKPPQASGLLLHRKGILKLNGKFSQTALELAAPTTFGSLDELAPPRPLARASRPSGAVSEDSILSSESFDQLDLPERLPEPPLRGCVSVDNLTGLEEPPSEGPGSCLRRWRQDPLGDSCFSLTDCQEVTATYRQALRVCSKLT

PDGFRA (human) = PDGFRA (human) (UniProt P16234)
PRKCB1 (human) = PRKCB1 (human) (UniProt P05771)
PRKCD (human) = PRKCD (human) (UniProt Q05655)
PRKCZ (human) = PRKCZ (human) (UniProt Q05513)
PRKD3 (human) = PRKD3 (human) (UniProt O94806)
ROCK1 (human) = ROCK1 (human) (UniProt Q13464)
Chain of ROCK1 (human) (Q13464 whole entry, looked up): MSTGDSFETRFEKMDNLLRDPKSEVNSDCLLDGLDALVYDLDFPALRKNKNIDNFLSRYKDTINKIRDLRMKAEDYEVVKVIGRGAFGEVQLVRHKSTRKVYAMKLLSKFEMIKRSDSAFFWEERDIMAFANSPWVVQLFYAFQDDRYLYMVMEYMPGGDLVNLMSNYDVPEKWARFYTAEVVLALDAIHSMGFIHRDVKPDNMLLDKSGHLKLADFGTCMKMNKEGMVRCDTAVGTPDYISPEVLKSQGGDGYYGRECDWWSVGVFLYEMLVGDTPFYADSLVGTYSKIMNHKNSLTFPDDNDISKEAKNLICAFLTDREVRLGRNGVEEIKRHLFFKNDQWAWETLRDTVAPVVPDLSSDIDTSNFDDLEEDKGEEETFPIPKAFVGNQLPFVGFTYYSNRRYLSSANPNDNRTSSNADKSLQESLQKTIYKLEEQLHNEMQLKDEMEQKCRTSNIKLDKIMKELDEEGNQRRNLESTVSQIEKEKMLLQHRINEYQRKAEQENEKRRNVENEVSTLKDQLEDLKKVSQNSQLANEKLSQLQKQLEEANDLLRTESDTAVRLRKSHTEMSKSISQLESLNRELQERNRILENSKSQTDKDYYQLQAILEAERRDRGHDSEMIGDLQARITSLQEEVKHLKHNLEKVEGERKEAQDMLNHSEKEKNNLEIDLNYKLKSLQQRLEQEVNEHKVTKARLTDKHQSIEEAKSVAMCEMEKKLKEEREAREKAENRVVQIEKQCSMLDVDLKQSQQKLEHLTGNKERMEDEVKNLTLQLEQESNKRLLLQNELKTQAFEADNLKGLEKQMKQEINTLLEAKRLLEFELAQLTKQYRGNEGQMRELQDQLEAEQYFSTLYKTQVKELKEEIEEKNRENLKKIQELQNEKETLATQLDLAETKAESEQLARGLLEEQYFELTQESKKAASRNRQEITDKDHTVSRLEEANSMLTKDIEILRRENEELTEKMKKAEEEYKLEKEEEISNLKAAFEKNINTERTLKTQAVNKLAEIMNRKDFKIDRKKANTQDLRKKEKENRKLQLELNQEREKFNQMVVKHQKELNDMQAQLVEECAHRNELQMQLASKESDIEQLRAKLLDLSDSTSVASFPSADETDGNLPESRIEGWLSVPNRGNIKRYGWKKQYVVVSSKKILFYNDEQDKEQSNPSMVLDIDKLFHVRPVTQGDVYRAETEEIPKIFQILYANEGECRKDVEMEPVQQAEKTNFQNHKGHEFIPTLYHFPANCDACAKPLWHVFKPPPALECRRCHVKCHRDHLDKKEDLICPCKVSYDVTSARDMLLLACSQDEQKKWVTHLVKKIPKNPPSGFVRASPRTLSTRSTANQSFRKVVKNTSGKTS

RPS6KA1 KD1 KD2 (human) = RPS6KA1 KD1 KD2 (human) (UniProt Q15418)
SGK2 (human) = SGK2 (human) (UniProt Q9HBY8)
Chain of SGK2 (human) (Q9HBY8 whole entry, looked up): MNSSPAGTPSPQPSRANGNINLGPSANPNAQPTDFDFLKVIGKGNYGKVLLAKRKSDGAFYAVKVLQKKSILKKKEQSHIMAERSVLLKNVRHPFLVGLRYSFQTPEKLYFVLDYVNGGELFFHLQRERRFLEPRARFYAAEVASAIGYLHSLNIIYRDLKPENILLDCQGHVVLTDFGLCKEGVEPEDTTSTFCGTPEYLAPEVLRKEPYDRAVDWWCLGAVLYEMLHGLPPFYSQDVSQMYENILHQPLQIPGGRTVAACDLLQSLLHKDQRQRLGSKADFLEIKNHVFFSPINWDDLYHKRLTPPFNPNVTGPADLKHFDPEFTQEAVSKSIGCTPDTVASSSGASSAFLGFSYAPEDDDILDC

SIK2 (human) = SIK2 (human) (UniProt Q9H0K1)
SLK (human) = SLK (human) (UniProt Q9H2G2)
SRMS (human) = SRMS (human) (UniProt Q9H3Y6)
STK24 (human) = STK24 (human) (UniProt Q9Y6E0)
STK25 (human) = STK25 (human) (UniProt O00506)
STK3 (human) = STK3 (human) (UniProt Q13188)
Chain of STK3 (human) (Q13188 whole entry, looked up): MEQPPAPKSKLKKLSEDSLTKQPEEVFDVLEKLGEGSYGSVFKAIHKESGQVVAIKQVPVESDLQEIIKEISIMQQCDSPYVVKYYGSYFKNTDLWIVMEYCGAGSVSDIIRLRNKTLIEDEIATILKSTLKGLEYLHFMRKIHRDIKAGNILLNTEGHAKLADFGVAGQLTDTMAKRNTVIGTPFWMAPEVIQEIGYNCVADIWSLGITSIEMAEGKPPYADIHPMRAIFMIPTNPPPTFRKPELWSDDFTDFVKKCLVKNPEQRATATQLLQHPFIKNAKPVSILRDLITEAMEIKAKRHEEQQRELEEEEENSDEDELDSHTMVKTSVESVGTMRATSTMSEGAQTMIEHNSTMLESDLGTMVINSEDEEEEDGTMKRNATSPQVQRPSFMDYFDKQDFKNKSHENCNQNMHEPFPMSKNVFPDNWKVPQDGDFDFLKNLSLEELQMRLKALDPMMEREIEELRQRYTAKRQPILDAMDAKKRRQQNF

TNK2 (human) = TNK2 (human) (UniProt Q07912)
[3] = molecular target: TYK2 JH1 catalytic (human) (UniProt P29597)
WNK2 (human) = WNK2 (human) (UniProt Q9Y3S1)

O=C1Nc2ccc(Br)cc2/C1=C\c1cc2c([nH]1)CCCC2
residual activity (ABL2 (human)): 82.6%
residual activity (ACVR1B (human)): 99%
residual activity (BLK (human)): 74.4%
residual activity (CAMK2B (human)): 85.8%
residual activity (CAMKK1 (human)): 69.6%
residual activity (CAMKK2 (human)): 68.1%
residual activity (CDK1 CCNA2 (human)): 96.3%
residual activity (CDK4 CCND1 (human)): 97.9%
residual activity (CDK5 CDK5R1 p35 (human)): 84.6%
residual activity (CSF1R (human)): 49.7%
residual activity (DYRK1B (human)): 93.9%
residual activity (DYRK3 (human)): 94%
residual activity (EPHA2 (human)): 110%
residual activity (EPHA5 (human)): 91.3%
residual activity (FGFR2 (human)): 87.4%
residual activity [1]: 56.1%
residual activity (GRK4 (human)): 101%
residual activity (HIPK4 (human)): 104%
residual activity [2]: 99.3%
residual activity (KDR (human)): 70.9%
residual activity (MAP3K14 (human)): 112%
residual activity (MAP4K5 (human)): 17.7%
residual activity (MELK (human)): 75.6%
residual activity (MET (human)): 81.6%
residual activity (NUAK2 (human)): 133%
residual activity (PDGFRA (human)): 76.2%
residual activity (PRKCB1 (human)): 97.4%
residual activity (PRKCD (human)): 95.6%
residual activity (PRKCZ (human)): 104%
residual activity (PRKD3 (human)): 90.3%
residual activity (ROCK1 (human)): 98.8%
residual activity (RPS6KA1 KD1 KD2 (human)): 70.4%
residual activity (SGK2 (human)): 101%
residual activity (SIK2 (human)): 92.7%
residual activity (SLK (human)): 73.4%
residual activity (SRMS (human)): 104%
residual activity (STK24 (human)): 94.2%
residual activity (STK25 (human)): 102%
residual activity (STK3 (human)): 60.7%
residual activity (TNK2 (human)): 92.8%
residual activity [3]: 86%
residual activity (WNK2 (human)): 101%

Cc1nc(-c2ccccc2)c(-c2ccncc2)o1
residual activity (ABL2 (human)): 92.8%
residual activity (ACVR1B (human)): 99.3%
residual activity (BLK (human)): 95.4%
residual activity (CAMK2B (human)): 95.9%
residual activity (CAMKK1 (human)): 123%
residual activity (CAMKK2 (human)): 105%
residual activity (CDK1 CCNA2 (human)): 94.7%
residual activity (CDK4 CCND1 (human)): 114%
residual activity (CDK5 CDK5R1 p35 (human)): 104%
residual activity (CSF1R (human)): 104%
residual activity (DYRK1B (human)): 98.9%
residual activity (DYRK3 (human)): 105%
residual activity (EPHA2 (human)): 104%
residual activity (EPHA5 (human)): 91.4%
residual activity (FGFR2 (human)): 108%
residual activity [1]: 108%
residual activity (GRK4 (human)): 94.3%
residual activity (HIPK4 (human)): 102%
residual activity [2]: 103%
residual activity (KDR (human)): 85.2%
residual activity (MAP3K14 (human)): 96.2%
residual activity (MAP4K5 (human)): 96.2%
residual activity (MELK (human)): 105%
residual activity (MET (human)): 102%
residual activity (NUAK2 (human)): 128%
residual activity (PDGFRA (human)): 96.3%
residual activity (PRKCB1 (human)): 95.2%
residual activity (PRKCD (human)): 96.2%
residual activity (PRKCZ (human)): 103%
residual activity (PRKD3 (human)): 94.3%
residual activity (ROCK1 (human)): 99.8%
residual activity (RPS6KA1 KD1 KD2 (human)): 103%
residual activity (SGK2 (human)): 105%
residual activity (SIK2 (human)): 86.2%
residual activity (SLK (human)): 101%
residual activity (SRMS (human)): 102%
residual activity (STK24 (human)): 96.7%
residual activity (STK25 (human)): 104%
residual activity (STK3 (human)): 104%
residual activity (TNK2 (human)): 97.7%
residual activity [3]: 109%
residual activity (WNK2 (human)): 101%
